Publication PMC7320011, “Rationally designed ruthenium complexes for 1- and 2-photon photodynamic therapy” (Nature Communications, 2020)
Where two headings read alike, the source gives them in different places.

Legend:
[1] = Two-photon absorption cross section; type: physicochemical; conditions: dichloromethane
Procedure: The two-photon absorption cross section spectra of the sample was determined upon direction comparison to Rhodamine B. The sample was irradiated with an OpoletteTM 355II (pulse width ≤ 100 fs, 80 MHz repetition rate, Spectra Physics Inc.) laser. The experimental excitation and detection conditions were conducted with negligible reabsorption processes, which could affect two-photon absorption measurements. The quadratic dependence of the two-photon induced luminescence intensity on the excitation power was verified at an excitation wavelength of 800 nm. The two-photon absorption cross section was calculated using the following equation:1 σ2,sample=σ2,reference×Φreference×creference×Isample×nsample/Φsample×csample×Ireference×nreference,
σ2 = two-photon cross section, Φ = luminescence quantum yield, c = concentration, I = integrated luminescence intensity, n = refractive index

[2] = Distribution coefficient (shake-flask, octanol/PBS); type: physicochemical; conditions: ICP-MS
Procedure: Using the “shake-flask” method, the distribution coefficient between the PBS and octanol phase of the sample was determined. The PBS and octanol phases were previously saturated in each other. The sample was dissolved in the phase, which is dissolving best the compound. This solution was added to an equal volume of the other phase and mixed at 190 rpm overnight with a sample mixer. Following this, the solutions were equilibrated for 4 h. The phases were carefully separated from each other. The amount of the sample in each phase was determined by ICP-MS. The evaluation was repeated three times and the ratio between the organic and aqueous phase determined.

Excited state lifetime = type: physicochemical; conditions: for τ air, excited state lifetime: air saturated acetonitrile; for τ degassed, excited state lifetime: degassed acetonitrile
Procedure: The sample was prepared in an air saturated as well as a degassed acetonitrile solution with an absorption of 0.2 at 355 nm. The sample was irradiated at 355 nm with a NT342B Nd-YAG pumped optical parametric oscillator (Ekspla). The emission was focused at right angle to the excitation pathway and directed to a Princeton Instruments Acton SP-2300i monochromator. The signal was detected with a R928 photomultiplier tube (Hamamatsu).

[3] = test system: noncancerous retinal pigment epithelium (RPE-1) cells
Procedure: (§1) A total of 4 × 10^3 cells were seeded on 96-well plates and allowed to adhere overnight. The cells were treated with increasing concentrations of the sample diluted in cell media achieving a total volume of 200 μL. The cells were incubated with the sample for 8 h and, after this time, the medium refreshed. To study the phototoxic effect of the sample, the cells were exposed to 480 nm (spectral half-width: 20 nm, 10 min, 5.2 mW cm^−2, 3.1 J cm^−2) or 540 nm (spectral half-width: 30 nm, 40 min, 4.0 mW cm^−2, 9.5 J cm^−2) light using an Atlas Photonics LUMOS BIO irradiator. To study the dark cytotoxicity of the sample, the cells were not irradiated and the medium exchanged. The cells were grown for an additional 40 h at 37 °C. After this time, the medium was replaced with fresh medium containing resazurin with a final concentration of 0.2 mg mL^−1. The cells were incubated for 4 h and the amount of the fluorescent product resorufin determined (λex = 540 nm, λem = 590 nm) with a SpectraMax M2 Microplate Reader (Molecular Devices). The obtained data was analyzed with the GraphPad Prism software.

[4] = test system: human glioblastoma astrocytoma (U373) cells; assay: (Photo-)cytotoxicity on 2D cell monolayers, U373; conditions: for PI (480 nm): U373, dark vs 480 nm; for PI (540 nm): U373, dark vs 540 nm; for IC50: 1-3 as chloride salts;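 on all read-outs here: Resazurin-to-resorufin fluorescence viability readout, 8 h compound exposure then medium change, light dose 3.1 J cm^−2 at 480 nm or 9.5 J cm^−2 at 540 nm, analysed 40 h later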
Procedure: as §1

[5] = Photostability (absorption spectra upon irradiation); type: physicochemical; conditions: 450 nm, 0 to 10 min (13.2 J cm^−2), air-saturated acetonitrile
Procedure: The sample was prepared in an air-saturated acetonitrile solution. Using a Atlas Photonics LUMOS BIO irradiator, the sample was constantly irradiated at 450 nm in time intervals from 0 to 10 min (13.2 J cm^−2). The absorption spectra from 350 to 700 nm was monitored with a SpectraMax M2 Microplate Reader (Molecular Devices) at each time interval. As positive and negative controls, respectively, [Ru(2,2′-bipyridine)3]Cl2 and Protoporphyrin IX were used.

[6] = test system: human cervical carcinoma (HeLa) cells; assay: (Photo-)cytotoxicity on 2D cell monolayers, HeLa; type: cell-based; conditions: for IC50: 1-3 as chloride salts; for PI (480 nm): dark vs 480 nm; for PI (540 nm): dark vs 540 nm
Procedure: as §1

[7] = Emission and luminescence quantum yield; type: physicochemical; conditions: acetonitrile
Procedure: The absorption spectra of the sample was measured with a SpectraMax M2 Spectrometer (Molecular Devices). For the measurements of the emission, the sample was irradiated at 355 nm with a NT342B Nd-YAG pumped optical parametric oscillator (Ekspla). The emission was focused at right angle to the excitation pathway and directed to a Princeton Instruments Acton SP-2300i monochromator. The signal was detected with a XPI-Max 4 CCD camera (Princeton Instruments).
The sample was prepared in an acetonitrile solution with an absorption of 0.1 at 355 nm. The sample was irradiated at 355 nm with a NT342B Nd-YAG pumped optical parametric oscillator (Ekspla). The emission was focused at right angle to the excitation pathway and directed to a Princeton Instruments Acton SP-2300i monochromator. The signal was detected with a XPI-Max 4 CCD camera (Princeton Instruments). The luminescence quantum yields were determined by comparison with the reference [Ru(2,2′-bipyridine)3]Cl2 in acetonitrile (Φem = 5.9%)[58] applying the following formula:2 Φem,sample=Φem,reference×Freference/Fsample×Isample/Ireference×nsample/nreference^2, 3 F=1−10^-A. Φem = luminescence quantum yield, F = fraction of light absorbed, I = integrated emission intensities, n = refractive index, A = absorbance of the sample at irradiation wavelength.

[8] = test system: noncancerous retinal pigment epithelium (RPE-1) cells; assay: (Photo-)cytotoxicity on 2D cell monolayers, RPE-1; conditions: for PI (480 nm): RPE-1, dark vs 480 nm; for PI (540 nm): RPE-1, dark vs 540 nm; for IC50: 1-3 as chloride salts
Procedure: as §1

[9] = test system: mouse colon carcinoma (CT-26) cells
Procedure: as §1

[10] = test system: human glioblastoma astrocytoma (U373) cells;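 further: Resazurin-to-resorufin fluorescence viability readout, 8 h compound exposure then medium change, light dose 3.1 J cm^−2 at 480 nm or 9.5 J cm^−2 at 540 nm, analysed 40 h later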
Procedure: as §1

[11] = Singlet oxygen quantum yield, direct evaluation (1O2 phosphorescence); type: physicochemical
Procedure: Direct evaluation: the sample was prepared in an air-saturated acetonitrile or deuterated water solution with an absorption of 0.2 at 450 nm. The sample was irradiated at 450 nm with a mounted M450LP1 LED (Thorlabs), whose light was focused with aspheric condenser lenses. Using a T-Cube LED Driver (Thorlabs), the intensity of the irradiation was varied and monitored with an optical power and energy meter. The emission was focused at right angle to the excitation pathway and directed to a Princeton Instruments Acton SP-2300i monochromator. To cut off light at wavelengths shorter than 850 nm, a longpass glass filter was placed in front of the monochromator entrance slit. The signal was detected with an EO-817L IR-sensitive liquid-nitrogen cooled germanium diode detector (North Coast Scientific Corp.). The luminescence signal, centered at 1270 nm, was measured from 1100 to 1400 nm. The obtained data were analyzed upon plotting the integrated luminescence peaks against the percentage of the irradiation intensity. The slope of the linear regression was calculated and compared with the reference Rose Bengal (Φ = 76%)[59]. The absorption of the sample was corrected with an absorption correction factor. The singlet oxygen quantum yields were calculated using the following formula:4 Φsample=Φreference×Ssample/Sreference×Ireference/Isample, 5 I=I0×1−10^-A.
Φ = singlet oxygen quantum yield, S = slope of the linear regression of the plot of the areas of the singlet oxygen luminescence peaks against the irradiation intensity, I = absorption correction factor, I0 = light intensity of the irradiation source, and A = absorption of the sample at irradiation wavelength.

[12] = read-out: IC50 480 nm (10 min, 3.1 J cm-2), U373, 480 nm
[13] = read-out: IC50 dark, U373, dark
[14] = 480 nm, read-out: IC50 480 nm (10 min, 3.1 J cm-2)
[15] = 540 nm, read-out: IC50 540 nm (40 min, 9.5 J cm-2)
[16] = read-out: IC50 540 nm (40 min, 9.5 J cm-2), RPE-1, 540 nm
[17] = read-out: IC50 dark, RPE-1, dark

## CN(C)c1ccc(/C=C/c2ccnc(-c3cc(/C=C/c4ccc(N(C)C)cc4)ccn3)c2)cc1.CN(C)c1ccc(/C=C/c2ccnc(-c3cc(/C=C/c4ccc(N(C)C)cc4)ccn3)c2)cc1.F[P-](F)(F)(F)(F)F.F[P-](F)(F)(F)(F)F.[Ru+2].c1ccc(-c2ccccn2)nc1 [compound 4, [Ru(2,2′-bipyridine)((E,E′)-4,4′-Bis[p-(N,N-dimethylamino)styryl]-2,2′-bipyridine)2][PF6]2]
[1]
  σ2, 2P absorption cross section: 838 GM
[2]
  logD (octanol/PBS): +1.7 ± 0.3
Excited state lifetime
  τ air, excited state lifetime: 69 ns
  τ degassed, excited state lifetime: 417 ns
[3]
  IC50: 10.9 µM
[4]
  PI (480 nm): > 7.0
  PI (540 nm): > 5.3
[4]; [12]
  IC50: 14.3 µM
[4]; [13]
  IC50: > 100 µM
[5]
  photostability (change of absorption spectra upon irradiation): small changes in the absorption spectra
[6]; [14]
  IC50: 8.5 µM
[6]; [15]
  IC50: 10.6 µM
[6]
  PI (480 nm): > 11.8
  PI (540 nm): > 9.4
[6]; dark, read-out: IC50 dark
  IC50: > 100 µM
[7]
  Φem, luminescence quantum yield: 0.4%
  λem, emission maximum: 703 nm
[8]
  PI (480 nm): > 9.2
  PI (540 nm): > 6.8
[8]; [16]
  IC50: 14.7 µM
[8]; [17]
  IC50: > 100 µM
[9]
  IC50: 7.3 µM
[10]
  IC50: 19 µM
[11]
  Singlet oxygen quantum yield, Direct 450 nm CH3CN: 34%

## CN(C)c1ccc(/C=C/c2ccnc(-c3cc(/C=C/c4ccc(N(C)C)cc4)ccn3)c2)cc1.F[P-](F)(F)(F)(F)F.F[P-](F)(F)(F)(F)F.[Ru+2].c1ccc(-c2ccccn2)nc1.c1ccc(-c2ccccn2)nc1 [compound 6, [Ru(2,2′-bipyridine)2((E,E′)-4,4′-Bis[p-(N,N-dimethylamino)styryl]-2,2′-bipyridine)][PF6]2]
[1]
  σ2, 2P absorption cross section: 349 GM
[2]
  logD (octanol/PBS): +0.7 ± 0.2
Excited state lifetime
  τ air, excited state lifetime: 54 ns
  τ degassed, excited state lifetime: 405 ns
[3]
  IC50: 7.3 µM
[4]
  PI (480 nm): > 12.0
  PI (540 nm): > 9.3
[4]; [12]
  IC50: 8.3 µM
[4]; [13]
  IC50: > 100 µM
[5]
  photostability (change of absorption spectra upon irradiation): small changes in the absorption spectra
[6]; [14]
  IC50: 5.3 µM
[6]; [15]
  IC50: 5.8 µM
[6]
  PI (480 nm): > 18.9
  PI (540 nm): > 17.2
[6]; dark, read-out: IC50 dark
  IC50: > 100 µM
[7]
  Φem, luminescence quantum yield: 0.5%
  λem, emission maximum: 697 nm
[8]
  PI (480 nm): > 13.7
  PI (540 nm): > 12.3
[8]; [16]
  IC50: 8.1 µM
[8]; [17]
  IC50: > 100 µM
[9]
  IC50: 2.4 µM
[10]
  IC50: 10.7 µM
[11]
  Singlet oxygen quantum yield, Direct 450 nm CH3CN: 46%

## COc1ccc(/C=C/c2ccnc(-c3cc(/C=C/c4ccc(OC)cc4)ccn3)c2)cc1.COc1ccc(/C=C/c2ccnc(-c3cc(/C=C/c4ccc(OC)cc4)ccn3)c2)cc1.F[P-](F)(F)(F)(F)F.F[P-](F)(F)(F)(F)F.[Ru+2].c1ccc(-c2ccccn2)nc1 [compound 5, [Ru(2,2′-bipyridine)((E,E′)-4,4′-Bis[p-methoxystyryl]-2,2′-bipyridine)2][PF6]2]
[1]
  σ2, 2P absorption cross section: 313 GM
[2]
  logD (octanol/PBS): +1.4 ± 0.2
Excited state lifetime
  τ air, excited state lifetime: 36 ns
  τ degassed, excited state lifetime: 231 ns
[3]
  IC50: 10.2 µM
[4]
  PI (480 nm): > 6.5
  PI (540 nm): > 5.6
[4]; [12]
  IC50: 15.3 µM
[4]; [13]
  IC50: > 100 µM
[5]
  photostability (change of absorption spectra upon irradiation): no significant differences in the absorption spectra
[6]; [14]
  IC50: 6.4 µM
[6]; [15]
  IC50: 7.9 µM
[6]
  PI (540 nm): > 12.7
[6]; dark, read-out: IC50 dark
  IC50: > 100 µM
[7]
  Φem, luminescence quantum yield: 1.4%
  λem, emission maximum: 674 nm
[8]
  PI (480 nm): > 9.8
  PI (540 nm): > 7.9
[8]; [16]
  IC50: 12.7 µM
[8]; [17]
  IC50: > 100 µM
[9]
  IC50: 5.1 µM
[10]
  IC50: 17.8 µM
[11]
  Singlet oxygen quantum yield, Direct 450 nm CH3CN: 54%
